{"source": "patent US10570129B2", "about": "(Zoetis Services LLC, priority 2015, dated 2020)", "key": {"Haemonchus contortus L3": {"system": "Haemonchus contortus L3", "assay": "microbe, parasite or virus in culture", "format": "cell-based", "conditions": "for minimal effective concentration: Haemonchus contortus, 96 h, read-out: HcL3 Minimal Effective Concentration (MEC)"}, "D. immitis microfilariae": {"system": "D. immitis microfilariae", "assay": "Dirofilaria immitis, microfilariae (DiMF) in vitro motility assay", "format": "cell-based", "conditions": "for minimal effective concentration: Dirofilaria immitis, 72 h, read-out: DiMF minimally effective dose (MEC)"}}}
{"smiles": "N#Cc1ccc2c(c1)c1c(n2C(=O)NCc2ccnc(Cl)c2)CCN(C/C=C/c2ccc(Cl)c(F)c2F)C1", "note": "[Example 82, (E)-2-(3-(4-chloro-2,3-difluorophenyl)allyl)-N-((2-chloropyridin-4-yl)methyl)-8-cyano-1,2,3,4-tetrahydro-5H-pyrido[4,3-b]indole-5-carboxamide]", "values": [{"measurement": "minimal effective concentration", "setting": "Haemonchus contortus L3", "result": 0.2, "unit": "µM"}, {"measurement": "minimal effective concentration", "setting": "D. immitis microfilariae", "result": "> 100", "unit": "µM"}]}
{"smiles": "N#Cc1ccc2c(c1)c1c(n2C(=O)NCc2ccnc(Cl)c2)CCN(C/C=C/c2ccc(Cl)c(Cl)c2)C1", "note": "[Example 93, (E)-N-((2-chloropyridin-4-yl)methyl)-8-cyano-2-(3-(3,4-dichlorophenyl)allyl)-1,2,3,4-tetrahydro-5H-pyrido[4,3-b]indole-5-carboxamide]", "values": [{"measurement": "minimal effective concentration", "setting": "Haemonchus contortus L3", "result": 0.7, "unit": "µM"}, {"measurement": "minimal effective concentration", "setting": "D. immitis microfilariae", "result": 2.4, "unit": "µM"}]}
{"smiles": "O=C(NCc1cnc(Cl)s1)n1c2c(c3c(Cl)cccc31)CN(C/C=C/c1ccc(Cl)cc1)CC2", "note": "[Example 231, (E)-9-chloro-2-(3-(4-chlorophenyl)allyl)-N-((2-chlorothiazol-5-yl)methyl)-1,2,3,4-tetrahydro-5H-pyrido[4,3-b]indole-5-carboxamide]", "values": [{"measurement": "minimal effective concentration", "setting": "Haemonchus contortus L3", "result": 3.3, "unit": "µM"}, {"measurement": "minimal effective concentration", "setting": "D. immitis microfilariae", "result": 13.5, "unit": "µM"}]}
{"smiles": "N#Cc1ccc2c(c1)c1c(n2C(=O)NCc2ccnc(Cl)c2)CCN(C/C=C/c2c(F)c(F)c(Cl)c(F)c2F)C1", "note": "[Example 84, (E)-2-(3-(4-chloro-2,3,5,6-tetrafluorophenyl)allyl)-N-((2-chloropyridin-4-yl)methyl)-8-cyano-1,2,3,4-tetrahydro-5H-pyrido[4,3-b]indole-5-carboxamide]", "values": [{"measurement": "minimal effective concentration", "setting": "Haemonchus contortus L3", "result": 0.1, "unit": "µM"}, {"measurement": "minimal effective concentration", "setting": "D. immitis microfilariae", "result": "> 100", "unit": "µM"}]}
{"smiles": "COc1ccc2c(c1)c1c(n2C(=O)NCc2ccnc(Cl)c2)CCN(C/C=C/c2ccc(Cl)cc2)C1", "note": "[Example 512, (E)-2-(3-(4-chlorophenyl)allyl)-N-((2-chloropyridin-4-yl)methyl)-8-methoxy-1,2,3,4-tetrahydro-5H-pyrido[4,3-b]indole-5-carboxamide]", "values": [{"measurement": "minimal effective concentration", "setting": "Haemonchus contortus L3", "result": 1, "unit": "µM"}, {"measurement": "minimal effective concentration", "setting": "D. immitis microfilariae", "result": 10, "unit": "µM"}]}
{"smiles": "N#Cc1ccc2c(c1)c1c(n2C(=O)NCc2ccnc(F)c2)CCN(C/C=C/c2ccc(F)c(F)c2F)C1", "note": "[Example 110, (E)-8-cyano-N-((2-fluoropyridin-4-yl)methyl)-2-(3-(2,3,4-trifluorophenyl)allyl)-1,2,3,4-tetrahydro-5H-pyrido[4,3-b]indole-5-carboxamide]", "values": [{"measurement": "minimal effective concentration", "setting": "Haemonchus contortus L3", "result": 0.3, "unit": "µM"}, {"measurement": "minimal effective concentration", "setting": "D. immitis microfilariae", "result": "> 100", "unit": "µM"}]}
{"smiles": "Cc1cccc2c1c1c(n2C(=O)NCc2ccnc(Cl)c2)CCN(C/C=C/c2ccc(F)cc2)C1", "note": "[Example 149, (E)-N-((2-chloropyridin-4-yl)methyl)-2-(3-(4-fluorophenyl)allyl)-9-methyl-1,2,3,4-tetrahydro-5H-pyrido[4,3-b]indole-5-carboxamide]", "values": [{"measurement": "minimal effective concentration", "setting": "Haemonchus contortus L3", "result": 4.4, "unit": "µM"}, {"measurement": "minimal effective concentration", "setting": "D. immitis microfilariae", "result": 10, "unit": "µM"}]}
{"smiles": "O=C(NCc1ccnc(F)c1)n1c2c(c3cc(Cl)ccc31)CN(C/C=C/c1ccc(F)c(F)c1)CC2", "note": "[Example 259, (E)-8-chloro-2-(3-(3,4-difluorophenyl)allyl)-N-((2-fluoropyridin-4-yl)methyl)-1,2,3,4-tetrahydro-5H-pyrido[4,3-b]indole-5-carboxamide]", "values": [{"measurement": "minimal effective concentration", "setting": "Haemonchus contortus L3", "result": 0.1, "unit": "µM"}, {"measurement": "minimal effective concentration", "setting": "D. immitis microfilariae", "result": 3.3, "unit": "µM"}]}
{"smiles": "N#Cc1ccc2c3c(n(C(=O)NCc4ccnc(F)c4)c2c1)CCN(C/C=C/c1ccc(Cl)c(F)c1F)C3", "note": "[Example 53, (E)-2-(3-(4-chloro-2,3-difluorophenyl)allyl)-7-cyano-N-((2-fluoropyridin-4-yl)methyl)-1,2,3,4-tetrahydro-5H-pyrido[4,3-b]indole-5-carboxamide]", "values": [{"measurement": "minimal effective concentration", "setting": "Haemonchus contortus L3", "result": 5.7, "unit": "µM"}, {"measurement": "minimal effective concentration", "setting": "D. immitis microfilariae", "result": "> 100", "unit": "µM"}]}
{"smiles": "O=C(NCc1ccnc(Cl)c1)n1c2c(c3ccc(OC(F)(F)F)cc31)CN(C/C=C/c1ccc(Cl)cc1F)CC2", "note": "[Example 340, (E)-2-(3-(4-chloro-2-fluorophenyl)allyl)-N-((2-chloropyridin-4-yl)methyl)-7-(trifluoromethoxy)-1,2,3,4-tetrahydro-5H-pyrido[4,3-b]indole-5-carboxamide]", "values": [{"measurement": "minimal effective concentration", "setting": "Haemonchus contortus L3", "result": 0.3, "unit": "µM"}, {"measurement": "minimal effective concentration", "setting": "D. immitis microfilariae", "result": 5.7, "unit": "µM"}]}
{"smiles": "COc1cc2c3c(n(C(=O)NCc4ccnc(Cl)c4)c2cc1C(F)(F)F)CCN(C/C=C/c1ccc(Cl)cc1)C3", "note": "[Example 329, (E)-2-(3-(4-chlorophenyl)allyl)-N-((2-chloropyridin-4-yl)methyl)-8-methoxy-7-(trifluoromethyl)-1,2,3,4-tetrahydro-5H-pyrido[4,3-b]indole-5-carboxamide]", "values": [{"measurement": "minimal effective concentration", "setting": "Haemonchus contortus L3", "result": 0.3, "unit": "µM"}, {"measurement": "minimal effective concentration", "setting": "D. immitis microfilariae", "result": 1.8, "unit": "µM"}]}
{"smiles": "O=C(NCc1ccnc(Cl)c1)N1c2ccc(Cl)cc2C2CN(C/C=C/c3ccc(Cl)c(Cl)c3)CCC21", "note": "(stereo not drawn) [Example 517, (E)-8-chloro-N-((2-chloropyridin-4-yl)methyl)-2-(3-(3,4-dichlorophenyl)allyl)-1,2,3,4,4a,9b-hexahydro-5H-pyrido[4,3-b]indole-5-carboxamide]", "values": [{"measurement": "HcL3 Minimal Effective Concentration (MEC)", "setting": "Haemonchus contortus L3", "result": 0.5, "unit": "µM"}, {"measurement": "DiMF minimally effective dose (MEC)", "setting": "D. immitis microfilariae", "result": 10.0, "unit": "µM"}]}
{"smiles": "O=C(NCc1ccnc(F)c1)n1c2c(c3cc(OC(F)(F)F)ccc31)CN(C/C=C/c1ccc(F)c(Cl)c1)CC2", "note": "[Example 404, (E)-2-(3-(3-chloro-4-fluorophenyl)allyl)-N-((2-fluoropyridin-4-yl)methyl)-8-(trifluoromethoxy)-1,2,3,4-tetrahydro-5H-pyrido[4,3-b]indole-5-carboxamide]", "values": [{"measurement": "minimal effective concentration", "setting": "Haemonchus contortus L3", "result": 1, "unit": "µM"}, {"measurement": "minimal effective concentration", "setting": "D. immitis microfilariae", "result": 18.2, "unit": "µM"}]}
{"smiles": "COc1ccc(/C=C/CN2CCc3c(c4c(Cl)cccc4n3C(=O)NCc3ccnc(Cl)c3)C2)cc1", "note": "[Example 220, (E)-9-chloro-N-((2-chloropyridin-4-yl)methyl)-2-(3-(4-methoxyphenyl)allyl)-1,2,3,4-tetrahydro-5H-pyrido[4,3-b]indole-5-carboxamide]", "values": [{"measurement": "minimal effective concentration", "setting": "Haemonchus contortus L3", "result": 3.3, "unit": "µM"}, {"measurement": "minimal effective concentration", "setting": "D. immitis microfilariae", "result": 10, "unit": "µM"}]}
{"smiles": "O=C(NCc1ccnc(F)c1)n1c2c(c3ccc(Cl)cc31)CN(C/C=C/c1ccc(F)cc1F)CC2", "note": "[Example 226, (E)-7-chloro-2-(3-(2,4-difluorophenyl)allyl)-N-((2-fluoropyridin-4-yl)methyl)-1,2,3,4-tetrahydro-5H-pyrido[4,3-b]indole-5-carboxamide]", "values": [{"measurement": "minimal effective concentration", "setting": "Haemonchus contortus L3", "result": "> 100", "unit": "µM"}, {"measurement": "minimal effective concentration", "setting": "D. immitis microfilariae", "result": 1.8, "unit": "µM"}]}
{"smiles": "O=C(NCc1ccnc(Cl)c1)n1c2c(c3ccc(OC(F)(F)F)cc31)CN(C/C=C/c1ccc(C(F)(F)F)cc1)CC2", "note": "[Example 362, (E)-N-((2-chloropyridin-4-yl)methyl)-7-(trifluoromethoxy)-2-(3-(4-(trifluoro-methyl)phenyl)allyl)-1,2,3,4-tetrahydro-5H-pyrido[4,3-b]indole-5-carboxamide]", "values": [{"measurement": "minimal effective concentration", "setting": "Haemonchus contortus L3", "result": "> 100", "unit": "µM"}, {"measurement": "minimal effective concentration", "setting": "D. immitis microfilariae", "result": 31.5, "unit": "µM"}]}
{"smiles": "N#Cc1ccc2c(c1)c1c(n2C(=O)NCc2ccnc(Cl)c2)CCN(C/C=C/c2ccc(F)c(C#N)c2)C1", "note": "[Example 98, (E)-N-((2-chloropyridin-4-yl)methyl)-8-cyano-2-(3-(3-cyano-4-fluorophenyl)allyl)-1,2,3,4-tetrahydro-5H-pyrido[4,3-b]indole-5-carboxamide]", "values": [{"measurement": "minimal effective concentration", "setting": "Haemonchus contortus L3", "result": 0.3, "unit": "µM"}, {"measurement": "minimal effective concentration", "setting": "D. immitis microfilariae", "result": "> 100", "unit": "µM"}]}
{"smiles": "O=C(NCc1ccnc(Cl)c1)n1c2c(c3c(Cl)cccc31)CN(C/C=C/c1ccc(F)cc1)CC2", "note": "[Example 218, (E)-9-chloro-N-((2-chloropyridin-4-yl)methyl)-2-(3-(4-fluorophenyl)allyl)-1,2,3,4-tetrahydro-5H-pyrido[4,3-b]indole-5-carboxamide]", "values": [{"measurement": "minimal effective concentration", "setting": "Haemonchus contortus L3", "result": 1, "unit": "µM"}, {"measurement": "minimal effective concentration", "setting": "D. immitis microfilariae", "result": 10, "unit": "µM"}]}
